Details in all cases: COS-7 membranes
For one test, the target named is T1, α1d-AR (Homo sapiens, UniProt P25100).
T1 construct: expressed in transfected cells; host or cells: COS-7 cells (African Green monkey kidney), membranes
T1 sequence (P25100 1-572): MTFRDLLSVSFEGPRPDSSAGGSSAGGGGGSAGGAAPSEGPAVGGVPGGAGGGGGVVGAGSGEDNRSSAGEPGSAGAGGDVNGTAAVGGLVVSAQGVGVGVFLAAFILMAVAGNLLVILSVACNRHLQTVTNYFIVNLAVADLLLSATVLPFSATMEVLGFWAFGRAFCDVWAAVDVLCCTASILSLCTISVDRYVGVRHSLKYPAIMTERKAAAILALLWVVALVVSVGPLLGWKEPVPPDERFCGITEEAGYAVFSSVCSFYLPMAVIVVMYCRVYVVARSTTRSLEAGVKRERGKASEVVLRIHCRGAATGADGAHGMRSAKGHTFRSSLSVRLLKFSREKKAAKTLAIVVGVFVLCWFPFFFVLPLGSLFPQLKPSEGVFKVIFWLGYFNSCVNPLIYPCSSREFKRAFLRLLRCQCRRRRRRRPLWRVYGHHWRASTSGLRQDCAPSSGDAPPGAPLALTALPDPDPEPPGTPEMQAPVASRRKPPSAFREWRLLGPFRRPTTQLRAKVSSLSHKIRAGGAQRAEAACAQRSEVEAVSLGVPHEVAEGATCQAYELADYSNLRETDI
As to the kind of experiment: α1-Adrenergic Receptor Binding Assay, 125I-HEAT radio-ligand binding, transfected COS-7 cell membranes, α1d subtype. Here is the method:
(§1) Membranes were prepared from COS-7 cells (African Green monkey kidney SV40-transformed cells) that had been transfected with one of the three α1-AR subtypes by the following method: COS cells from ten 100 mm tissue culture plates were scraped into a 5 ml volume of TE (a mixture of 50 mM tris(hydroxymethyl)aminomethane hydrochloride (Tris-HCl) and 5 mM ethylenediaminetetraacetic acid (EDTA) at pH 7.4). The cell suspension was disrupted with a Brinkman Polytron (at a setting of 8) for 10 sec. The disrupted cells were centrifuged at 1000×g for 10 min at 4° C. Supernatants were centrifuged at 34,500×g for 20 min at 4° C. The membrane pellets were suspended in a 2 ml volume of TNE (a mixture of 50 mM Tris-HCl, 5 mM EDTA and 150 mM NaCl at pH7.4). An aliquot of the membrane suspension was stored at −70° C. until use. The protein concentration was determined using a BioRad “DC” protein assay kit following membrane solubilization with Triton X-100.
(§2) Triplicate determinations of radio-ligand binding in the presence of increasing concentrations of testing compound were made. The reagents were added to 96-well polypropylene plate wells. Each assay well contained 140 μL TNE, 25 μL 125′-2-(β-4-hydroxyphenyl)ethylaminomethyltetralone (^125I-HEAT) (specific activity 2200 Ci/mmol, Dupont-New England Nuclear, […] final), 10 μL testing compound dissolved in dimethyl sulfoxide (DMSO) ([…] to 10 μM in half-log increments, final), and 25 μL appropriate α1-AR membrane subtype suspension in TNE (0.5 ng/μL for the α1a and α1b subtypes and 13 ng/μL for the α1d subtype). The plate was incubated at rt for 1 hr. The contents of the wells were filtered through a glass filter (type C) (GF/C) membrane Unifilter plate (Packard Instruments) using the Packard Filtermate cell harvester. The filter plates were dried in a vacuum oven for 30 min at 40° C. 25 μL Microscint 20 liquid scintillation fluid (Packard Instuments) was added to each well. The radioactive content was analyzed in the TopCount microplate scintillation counter (Packard Instruments).
(§3) The Ki values (in nM) shown in Table 1 were determined using GraphPad Prism software.

For a further test, the target named is T2, α1b-AR (Homo sapiens, UniProt P35368).
T2 construct: expressed in transfected cells; host or cells: COS-7 cells (African Green monkey kidney), membranes
T2 sequence (P35368 1-520): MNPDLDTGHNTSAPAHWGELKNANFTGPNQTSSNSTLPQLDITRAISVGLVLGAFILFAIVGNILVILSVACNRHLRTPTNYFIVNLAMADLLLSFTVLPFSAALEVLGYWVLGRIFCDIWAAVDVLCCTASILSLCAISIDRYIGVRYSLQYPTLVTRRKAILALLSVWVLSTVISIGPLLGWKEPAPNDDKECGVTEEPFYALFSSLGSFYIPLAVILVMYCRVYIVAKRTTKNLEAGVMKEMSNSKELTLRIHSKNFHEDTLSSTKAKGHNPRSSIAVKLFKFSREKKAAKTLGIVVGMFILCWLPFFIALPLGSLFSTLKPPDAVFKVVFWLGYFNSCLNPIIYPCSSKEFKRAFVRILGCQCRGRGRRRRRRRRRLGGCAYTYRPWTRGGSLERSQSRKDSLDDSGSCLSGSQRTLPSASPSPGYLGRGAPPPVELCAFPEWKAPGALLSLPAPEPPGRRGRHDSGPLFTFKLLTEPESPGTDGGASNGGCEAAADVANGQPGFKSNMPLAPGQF
As to the kind of experiment: α1-Adrenergic Receptor Binding Assay, 125I-HEAT radio-ligand binding, transfected COS-7 cell membranes, α1b subtype. Here is the method: as §1, §2, §3

Another test deals with T3, α1a-AR (Homo sapiens, UniProt P35348).
T3 construct: expressed in transfected cells; host or cells: COS-7 cells (African Green monkey kidney), membranes
T3 sequence (P35348 1-466): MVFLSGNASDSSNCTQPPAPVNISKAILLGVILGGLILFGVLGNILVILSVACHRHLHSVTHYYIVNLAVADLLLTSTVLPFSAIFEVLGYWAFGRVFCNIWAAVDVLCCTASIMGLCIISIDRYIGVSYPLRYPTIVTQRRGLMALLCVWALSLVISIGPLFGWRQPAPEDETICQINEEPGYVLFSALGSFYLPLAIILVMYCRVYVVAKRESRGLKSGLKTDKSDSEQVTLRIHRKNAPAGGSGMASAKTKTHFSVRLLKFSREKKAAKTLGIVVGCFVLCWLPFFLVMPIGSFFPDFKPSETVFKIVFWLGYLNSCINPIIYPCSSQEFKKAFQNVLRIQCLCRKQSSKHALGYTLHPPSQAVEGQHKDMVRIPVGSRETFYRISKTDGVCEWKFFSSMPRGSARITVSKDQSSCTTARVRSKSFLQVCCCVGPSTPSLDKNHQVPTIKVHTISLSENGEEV
As to the kind of experiment: α1-Adrenergic Receptor Binding Assay, 125I-HEAT radio-ligand binding, transfected COS-7 cell membranes, α1a subtype. Here is the method: as §1, §2, §3

[1] abbreviates: average value, read-out: Alpha 1 Ki α1d (1) Average Value.
Where [2] appears, read: individual values, read-out: Alpha 1 Ki α1d (2) Individual Values.
The mark [3] stands for this setting: average value, read-out: Alpha 1 Ki α1b (1) Average Value.
[4] abbreviates: individual values, read-out: Alpha 1 Ki α1b (2) Individual Values.
[5] abbreviates: average value, read-out: Alpha 1 Ki α1a (1) Average Value.
[6] abbreviates: individual values, read-out: Alpha 1 Ki α1a (2) Individual Values.

SMILES strings stand for the structures. Several values for one entry are separate records, joined by “and”; a condition that tells them apart may be missing. Identical values can stand only once. Like-named read-outs stand apart in the source and are kept apart here.

As usually defined, the Ki is the equilibrium dissociation constant of an inhibitor or competing ligand from its target.

For the compound `CC(C)Oc1ccccc1N1CCN(CC2CC(C(=O)N3CCOCC3)=NO2)CC1` (single isomer, unassigned) [Compound 44, {(5S*)-5-[4-(2-isopropoxy-phenyl)-piperazin-1-ylmethyl]-4,5-dihydro-isoxazol-3-yl}-morpholin-4-yl-methanone], the Ki turned out to be 19.9 nM on α1d-AR (setting [1]); 19.9 nM on α1d-AR (setting [2]); 521 nM on α1b-AR (setting [3]); 521 nM at α1b-AR (setting [4]); 2.32 nM at α1a-AR (setting [5]); 2.32 nM at α1a-AR (setting [6]).

Regarding `CC(C)Oc1ccccc1N1CCN(CC2CC(C(=O)N3CCOCC3)=NO2)CC1` (single isomer, unassigned) [Compound 45, {(5R*)-5-[4-(2-Isopropoxy-phenyl)-piperazin-1-ylmethyl]-4,5-dihydro-isoxazol-3-yl}-morpholin-4-yl-methanone], the Ki on α1d-AR (setting [1]) was determined as 297 nM; at α1d-AR (setting [2]) it was 297 nM; on α1b-AR (setting [3]), 1060 nM; at α1b-AR (setting [4]) it was 1060 nM; on α1a-AR (setting [5]) it was 73.1 nM; on α1a-AR (setting [6]), 73.1 nM.

`CC(C)Oc1ccccc1N1CCN(CC2CC(CN3CCCCC3=O)=NO2)CC1` (centres unmarked) [Compound 1, 1-{5-[4-(2-isopropoxy-phenyl)-piperazin-1-ylmethyl]-4,5-dihydro-isoxazol-3-ylmethyl}-piperidin-2-one]: the inhibition constant Ki at α1d-AR (setting [1]) stood at 8.5 nM; at α1d-AR (setting [2]) it was 8.5 nM; on α1b-AR (setting [3]), 82 nM; on α1b-AR (setting [4]), 82 nM; at α1a-AR (setting [5]) it was 0.96 nM; at α1a-AR (setting [6]) it was 0.96 nM.

As for `CC(C)Oc1ccccc1N1CCN(CC2CC(CN3CCc4ccccc43)=NO2)CC1` (centres unmarked) [Compound 4, 1-{5-[4-(2-isopropoxy-phenyl)-piperazin-1-ylmethyl]-4,5-dihydro-isoxazol-3-ylmethyl}-2,3-dihydro-1H-indole], the Ki turned out to be 10 nM at α1d-AR (setting [1]); 10 nM at α1d-AR (setting [2]); 101 nM on α1b-AR (setting [3]); 101 nM on α1b-AR (setting [4]); 1.9 nM on α1a-AR (setting [5]); 1.9 nM on α1a-AR (setting [6]).

With `CC(C)Oc1ccccc1N1CCN(CC2CC(CN3CCCCC3)=NO2)CC1` (centres unmarked) [Compound 5, 1-(2-isopropoxy-phenyl)-4-(3-piperidin-1-ylmethyl-4,5-dihydro-isoxazol-5-ylmethyl)-piperazine], the Ki at α1d-AR (setting [1]) was 178 nM; on α1d-AR (setting [2]), 178 nM; on α1b-AR (setting [3]), 5000 nM; on α1b-AR (setting [4]), 5000 nM; at α1a-AR (setting [5]), 10 nM; at α1a-AR (setting [6]), 10 nM.

For `CC(C)Oc1ccccc1N1CCN(CC2CC(CN3CCc4ccc(N)cc43)=NO2)CC1` (centres unmarked) [Compound 6, 1-{5-[4-(2-isopropoxy-phenyl)-piperazin-1-ylmethyl]-4,5-dihydro-isoxazol-3-ylmethyl}-2,3-dihydro-1H-indol-6-ylamine], the Ki was determined as 46 nM on α1d-AR (setting [1]); 46 nM at α1d-AR (setting [2]); 410 nM on α1b-AR (setting [3]); 410 nM at α1b-AR (setting [4]); 4.3 nM on α1a-AR (setting [5]); 4.3 nM at α1a-AR (setting [6]).

As for `CC(C)Oc1ccccc1N1CCN(CC2CC(CN3CCc4ccc(NCc5c(F)cccc5F)cc43)=NO2)CC1` (centres unmarked) [Compound 7, (2,6-difluoro-benzyl)-(1-{5-[4-(2-isopropoxy-phenyl)-piperazin-1-ylmethyl]-4,5-dihydro-isoxazol-3-ylmethyl}-2,3-dihydro-1H-indol-6-yl)-amine], the Ki at α1d-AR (setting [1]) was determined as 9.4 nM; on α1d-AR (setting [2]), 9.4 nM; on α1b-AR (setting [3]), 172 nM; at α1b-AR (setting [4]), 172 nM; at α1a-AR (setting [5]) it was 6.4 nM; at α1a-AR (setting [6]) it was 6.4 nM.

Regarding `CC(C)Oc1ccccc1N1CCN(CC2CC(CN3CCc4ccc(NCc5ccccc5F)cc43)=NO2)CC1` (centres unmarked) [Compound 8, (2-fluoro-benzyl)-(1-{5-[4-(2-isopropoxy-phenyl)-piperazin-1-ylmethyl]-4,5-dihydro-isoxazol-3-ylmethyl}-2,3-dihydro-1H-indol-6-yl)-amine], the Ki is 35 nM at α1d-AR (setting [1]); 35 nM at α1d-AR (setting [2]); 304 nM at α1b-AR (setting [3]); 304 nM at α1b-AR (setting [4]); 6.9 nM on α1a-AR (setting [5]); 6.9 nM on α1a-AR (setting [6]).

With `COc1cccc(CNc2ccc3c(c2)N(CC2=NOC(CN4CCN(c5ccccc5OC(C)C)CC4)C2)CC3)c1` (centres unmarked) [Compound 9, (1-{5-[4-(2-isopropoxy-phenyl)-piperazin-1-ylmethyl]-4,5-dihydro-isoxazol-3-ylmethyl}-2,3-dihydro-1H-indol-6-yl)-(3-methoxy-benzyl)-amine], the Ki on α1d-AR (setting [1]) worked out at 22 nM; on α1d-AR (setting [2]), 22 nM; at α1b-AR (setting [3]), 195 nM; at α1b-AR (setting [4]) it was 195 nM; at α1a-AR (setting [5]) it was 34 nM; at α1a-AR (setting [6]), 34 nM.

For the compound `CC(C)Oc1ccccc1N1CCN(CC2CC(C(=O)N3CCc4ccccc43)=NO2)CC1` (centres unmarked) [Compound 10, (2,3-dihydro-indol-1-yl)-{5-[4-(2-isopropoxy-phenyl)-piperazin-1-ylmethyl]-4,5-dihydro-isoxazol-3-yl}-methanone], the Ki on α1d-AR (setting [1]) was 1.3 nM; on α1b-AR (setting [3]), 107 nM; on α1b-AR (setting [4]), 90 nM and 145 nM and 92 nM and 87.6 nM and 121 nM; at α1a-AR (setting [5]) it was 2.12 nM; on α1a-AR (setting [6]), 1.4 nM and 3.4 nM and 3.1 nM and 1.9 nM and 0.8 nM.

With `CC(C)Oc1ccccc1N1CCN(CC2CC(C(=O)N3CCc4ccc([N+](=O)[O-])cc43)=NO2)CC1` (centres unmarked) [Compound 11, {5-[4-(2-isopropoxy-phenyl)-piperazin-1-ylmethyl]-4,5-dihydro-isoxazol-3-yl}-(6-nitro-2,3-dihydro-indol-1-yl)-methanone], the Ki on α1d-AR (setting [1]) was 1.82 nM; at α1d-AR (setting [2]), 3.1 nM and 0.55 nM; on α1b-AR (setting [3]), 145 nM; at α1b-AR (setting [4]), 153 nM and 136 nM; on α1a-AR (setting [5]), 1.42 nM; on α1a-AR (setting [6]), 2.2 nM and 0.63 nM.

The values above are taken from patent US20080221116A1, “ISOXAZOLINE ALPHA 1a/1d ADRENORECEPTOR ANTAGONISTS” (priority 2006, published 2008).
